Measurements: US4880789A, “2'-Substituted-4-deoxy-thiazolo(5,4-c)-rifamycin SV derivatives” (Gruppo Lepetit S.P.A., priority 1985, dated 1989)
Converted amounts (≈) assume the structure as drawn. Read-outs that look alike come from different tables or passages of the source.

Experiments:
S. faecalis ATCC 7080 = assay: MIC, two-fold dilution microtiter, S. faecalis ATCC 7080; format: cell-based; details: Enterococcus faecalis, ATCC7080, 18-24 h, 37° C, read-out: MIC
[1] = tested on: Escherichia coli SKF 12140; assay: MIC, two-fold dilution microtiter, E. coli SKF 12140; format: cell-based; details: Escherichia coli, SKF12140, Iso-Sensitest broth, 18-24 h, 37° C, read-out: MIC
S. pneumoniae UC 41 = assay: MIC, two-fold dilution microtiter, S. pneumoniae UC 41; format: cell-based; details: Streptococcus pneumoniae, UC41, Todd-Hewitt broth, 18-24 h, 37° C, read-out: MIC
[2] = tested on: Mycobacterium tuberculosis H37RV ATCC 9360; assay: MIC, M. tuberculosis H37RV, Kirschner medium; format: cell-based; details: Mycobacterium tuberculosis, 168 h, 10% horse serum, 7 days, 37° C, read-out: MIC
Method: (§1) The minimum inhibitory concentration (MIC) of representative compounds of the invention was determined using two-fold dilution method in microtiter system. The media used were: Todd-Hewitt broth (Difco) for steptococci; Iso-Sensitest broth (Oxoid) for staphylococci and gram-negative bacteria. The final inoculum was about 10^4 cfμ/ml. […] For M. tuberculosis H37 RV the inoculum consisted of 0.5-1% of a 7-9 day culture in Dubos medium. The tests were carried out in Kirschner medium supplemented with 10% horse serum. Observations were made after 7-days incubation at 37° C.

[3] = tested on: Pseudomonas aeruginosa ATCC 10145; assay: MIC, two-fold dilution microtiter, P. aeruginosa ATCC 10145; format: cell-based; details: Pseudomonas aeruginosa, ATCC10145; P. aeruginosa ATCC 10145; Iso-Sensitest broth; 18-24 h, 37° C; read-out: MIC
S. aureus tour L 165 [4] = assay: experimental septicemia in mice (S. aureus); format: in vivo; details: Staphylococcus aureus, once daily for three days, survival on 10th day
Method: The antimicrobial activity of the compounds of the invention is also confirmed in "in vivo" tests. The animals (groups of five mice) were infected by intraperitoneal injection of 16-hour broth culture of S. aureus tour L 165. Inocula were adjusted so that untreated animals died of septicemia within 48 hours. Animals were treated once daily for three days starting immediately after infection. On the 10th day the value for the ED50 in mg/kg/day was calculated by the method of […]-KARBER (Finney, D. J., Statistical method in biological assay, page 524. C. Griffin Ltd., London, 1952), on the basis of the percentage of surviving animals at each dose.

[5] = tested on: Proteus vulgaris XI9H ATCC 881; assay: MIC, two-fold dilution microtiter, P. vulgaris; format: cell-based; details: Proteus vulgaris, ATCC881; P. vulgaris XI9H ATCC 881; Iso-Sensitest broth; 18-24 h, 37° C; read-out: MIC
S. aureus TOUR L 1282 = assay: MIC, two-fold dilution microtiter, rifampicin resistant S. aureus TOUR L 1282; format: cell-based; details: Staphylococcus aureus, TOURL1282, rifampicin resistant strain
[6] = tested on: Klebsiella pneumoniae ISM; assay: MIC, two-fold dilution microtiter, K. pneumoniae ISM; format: cell-based; details: Klebsiella pneumoniae; K. pneumoniae ISM; Iso-Sensitest broth; 18-24 h, 37° C; read-out: MIC
S. aureus TOUR L 165 [7] = assay: MIC, two-fold dilution microtiter, S. aureus TOUR L 165; format: cell-based, Staphylococcus aureus
[8] = tested on: Staphylococcus aureus ATCC 6538; assay: MIC, two-fold dilution microtiter, S. aureus ATCC 6538; format: cell-based; details: Staphylococcus aureus, ATCC6538
[9] = tested on: Streptococcus pyogenes C203; assay: MIC, two-fold dilution microtiter, S. pyogenes C203; format: cell-based; details: Streptococcus pyogenes, Todd-Hewitt broth, 18-24 h, 37° C, read-out: MIC
Method: as §1

[10] = Staphylococcus aureus, TOURL165, S. aureus TOUR L 165, Iso-Sensitest broth, 18-24 h, 37° C, read-out: MIC
[11] = Staphylococcus aureus, TOURL165, S. aureus TOUR L 165, supplemented with 30% bovine serum, read-out: MIC
[12] = S. aureus ATCC 6538, Iso-Sensitest broth, 18-24 h, 37° C, read-out: MIC

SMILES | MIC (S. faecalis ATCC 7080) [µg/mL] | MIC [1] [µg/mL] | MIC (S. pneumoniae UC 41) [µg/mL] | MIC [2] [µg/mL] | MIC [3] [µg/mL] | ED50 (S. aureus tour L 165 [4]; TOURL165, 240 h, sc) [mg/kg] | ED50 (S. aureus tour L 165 [4]; TOURL165, po, 240 h, os) [mg/kg] | MIC [5] [µg/mL] | MIC (S. aureus TOUR L 1282) [µg/mL] | MIC [6] [µg/mL] | MIC (S. aureus TOUR L 165 [7]; [10]) [µg/mL] | MIC (S. aureus TOUR L 165 [7]; [11]) [µg/mL] | MIC [8, 12] [µg/mL] | MIC [9] [µg/mL] | MIC (S. aureus TOUR L 165 [7]; S. aureus TOUR L 165, supplemented with 30% bovine serum) [µg/mL] | MIC (S. aureus TOUR L 165 [7]; Staphylococcus aureus, TOURL165) [µg/mL] | MIC [8] [µg/mL]
COC1C=COC2(C)Oc3c(C)c(O)c4c(O)c(c5sc(N6CCCCC6)nc5c4c3C2=O)NC(=O)C(C)=CC=CC(C)C(O)C(C)C(O)C(C)C(OC(C)=O)C1C (centres unmarked) [Example 2, 2'-(1"-Piperidinyl) rifamycin P] | 1.6 (≈ 1.95 µM) | 12.5 (≈ 15.2 µM) | 0.05 (≈ 0.0608 µM) | 0.2 (≈ 0.243 µM) | 6.25 (≈ 7.6 µM) | 0.16 | 0.63 | 6.25 (≈ 7.6 µM) | > 100 | 25 (≈ 30.4 µM) | 0.006 (≈ 0.0073 µM) | 0.2 (≈ 0.243 µM) | 0.003 (≈ 0.00365 µM) | 0.05 (≈ 0.0608 µM) | – | – | –
COC1C=COC2(C)Oc3c(C)c(O)c4c(O)c(c5sc(N6CCN(C)CC6)nc5c4c3C2=O)NC(=O)C(C)=CC=CC(C)C(O)C(C)C(O)C(C)C(OC(C)=O)C1C (centres unmarked) [Example 3a, 2'-(4"-Methyl-1"-piperazinyl) rifamycin P] | 2 (≈ 2.39 µM) | 16 (≈ 19.1 µM) | 0.032 (≈ 0.0382 µM) | 1 (≈ 1.19 µM) | 16 (≈ 19.1 µM) | 0.16 | 0.36 | 8 (≈ 9.56 µM) | 32 (≈ 38.2 µM) | 32 (≈ 38.2 µM) | 0.004 (≈ 0.00478 µM) | 0.004 (≈ 0.00478 µM) | 0.001 (≈ 0.00119 µM) | 0.032 (≈ 0.0382 µM) | – | – | –
COC1C=COC2(C)Oc3c(C)c(O)c4c(O)c(c5sc(N6CCN(C)CC6)nc5c4c3C2=O)NC(=O)C(C)=CC=CC(C)C(O)C(C)C(O)C(C)C(O)C1C (centres unmarked) [Example 3b, 25-Desacetyl-2'-(4"-methyl-1-piperazinyl) rifamycin P] | 1 (≈ 1.26 µM) | 8 (≈ 10.1 µM) | 0.063 (≈ 0.0792 µM) | 1 (≈ 1.26 µM) | 8 (≈ 10.1 µM) | 10 | 13 | 8 (≈ 10.1 µM) | > 128 | 16 (≈ 20.1 µM) | 0.008 (≈ 0.0101 µM) | 0.016 (≈ 0.0201 µM) | 0.008 (≈ 0.0101 µM) | 0.063 (≈ 0.0792 µM) | – | – | –
COC1C=COC2(C)Oc3c(C)c(O)c4c(O)c(c5sc(N6CCN(CCO)CC6)nc5c4c3C2=O)NC(=O)C(C)=CC=CC(C)C(O)C(C)C(O)C(C)C(OC(C)=O)C1C (centres unmarked) [Example 3c, 2'-[4"(2'"-hydroxyethyl)-1"-piperazinyl]rifamycin P] | 4 (≈ 4.61 µM) | 8 (≈ 9.23 µM) | 0.008 (≈ 0.00923 µM) | 4 (≈ 4.61 µM) | 128 (≈ 148 µM) | 3.3 | > 20 | 16 (≈ 18.5 µM) | 64 (≈ 73.8 µM) | 32 (≈ 36.9 µM) | 0.016 (≈ 0.0185 µM) | 0.032 (≈ 0.0369 µM) | 0.008 (≈ 0.00923 µM) | 0.016 (≈ 0.0185 µM) | – | – | –
COC1C=COC2(C)Oc3c(C)c(O)c4c(O)c(c5sc(N6CCNCC6)nc5c4c3C2=O)NC(=O)C(C)=CC=CC(C)C(O)C(C)C(O)C(C)C(OC(C)=O)C1C (centres unmarked) [Example 4, 2'-(1"-Piperazinyl) rifamycin P] | 2 (≈ 2.43 µM) | 8 (≈ 9.72 µM) | 0.064 (≈ 0.0778 µM) | – | 16 (≈ 19.4 µM) | – | – | 8 (≈ 9.72 µM) | > 128 | 16 (≈ 19.4 µM) | – | – | – | 0.125 (≈ 0.152 µM) | 0.125 (≈ 0.152 µM) | 0.125 (≈ 0.152 µM) | 0.125 (≈ 0.152 µM)
CCN(CC)c1nc2c(s1)c1c(O)c3c(O)c(C)c4c(c32)C(=O)C(C)(OC=CC(OC)C(C)C(OC(C)=O)C(C)C(O)C(C)C(O)C(C)C=CC=C(C)C(=O)N1)O4 (centres unmarked) [Example 5, 2'-(N,N-diethylamino) rifamycin P] | 1 (≈ 1.23 µM) | 32 (≈ 39.5 µM) | 0.032 (≈ 0.0395 µM) | 0.5 (≈ 0.617 µM) | – | 0.21 | 0.82 | 32 (≈ 39.5 µM) | > 128 | 64 (≈ 79 µM) | 0.064 (≈ 0.079 µM) | 0.5 (≈ 0.617 µM) | 0.032 (≈ 0.0395 µM) | 0.064 (≈ 0.079 µM) | – | – | –
